Experimental findings from PubChem BioAssay AID330 (DTP/NCI, 2004) are described below.

Where “and” joins values, the source holds several entries; their conditions need not be identical. Equal values may be shown once. Inconclusive results and toxic doses are left out.

In the experiment the test system is P388 leukemia ip, CD2F1 mice, survival T/C. Description: NCI In Vivo Anticancer Drug Screen. Data for tumor model P388 Leukemia (intraperitoneal) in CD2F1 (CDF1) mice. To be noted: endpoint: median survival time, higher = longer survival. The method in brief: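 Mice carrying the transplanted tumor received test compound or vehicle. Survival was recorded in each group, and the value is the treated-group measurement divided by that of the vehicle-treated control group.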

Setting [1] is: dose: 100.0 mg/kg/injection, schedule: Q01DX001 (ip), vehicle: saline with Tween-80.
Setting [2] is: dose: 400.0 mg/kg/injection, schedule: Q01DX001 (ip), vehicle: saline with Tween-80.
Where [3] appears, read: dose: 50.0 mg/kg/injection, schedule: Q01DX005 (ip), vehicle: saline with Tween-80.
[4] abbreviates: dose: 100.0 mg/kg/injection, schedule: Q01DX005 (ip), vehicle: saline with Tween-80.
[5] abbreviates: dose: 200.0 mg/kg/injection, schedule: Q01DX005 (ip), vehicle: saline with Tween-80.
Setting [6] is: dose: 50.0 mg/kg/injection, schedule: Q01DX005 (ip), vehicle: Klucel (hydroxypropylcellulose) (HPC).
Where [7] appears, read: dose: 100.0 mg/kg/injection, schedule: Q01DX005 (ip), vehicle: Klucel (hydroxypropylcellulose) (HPC).
[8] abbreviates: dose: 200.0 mg/kg/injection, schedule: Q01DX005 (ip), vehicle: Klucel (hydroxypropylcellulose) (HPC).
Where [9] appears, read: dose: 12.5 mg/kg/injection, schedule: Q01DX009 (ip), vehicle: Klucel (hydroxypropylcellulose) (HPC).
The mark [10] stands for this setting: dose: 50.0 mg/kg/injection, schedule: Q01DX009 (ip), vehicle: Klucel (hydroxypropylcellulose) (HPC).
Setting [11] is: dose: 60.0 mg/kg/injection, schedule: Q01DX005 (ip), vehicle: saline with Tween-80.
The mark [12] stands for this setting: dose: 240.0 mg/kg/injection, schedule: Q01DX005 (ip), vehicle: saline with Tween-80.
Setting [13] is: dose: 120.0 mg/kg/injection, schedule: Q01DX005 (ip), vehicle: saline with Tween-80.
The mark [14] stands for this setting: dose: 12.5 mg/kg/injection, schedule: Q01DX005 (ip), vehicle: saline with Tween-80.
Setting [15] is: dose: 25.0 mg/kg/injection, schedule: Q01DX005 (ip), vehicle: saline with Tween-80.
The mark [16] stands for this setting: dose: 12.5 mg/kg/injection, schedule: Q01DX009 (ip), vehicle: saline with Tween-80.

`O=c1c(N=Nc2ccccc2)c[nH]n1-c1ccccc1`: the T/C (dose: 62.5 mg/kg/injection, schedule: Q01DX009 (ip), vehicle: saline with Tween-80) was 97 % of control; the T/C (dose: 125.0 mg/kg/injection, schedule: Q01DX009 (ip), vehicle: saline with Tween-80) is 97 % of control; the T/C (dose: 250.0 mg/kg/injection, schedule: Q01DX009 (ip), vehicle: saline with Tween-80) is 94 % of control.

Take `Cc1ccc(S(=O)(=O)OC2C(O)CC(=O)C(OC(=O)c3ccccc3)C2OC(=O)c2ccccc2)cc1` (centres undefined): the T/C was 90 % of control (dose: 50.0 mg/kg/injection, schedule: Q01DX001 (ip), vehicle: saline with Tween-80); 89 % of control under setting [1]; 100 % of control under setting [2].

`Cc1noc(N)c1C`: the T/C runs as follows: (dose: 25.0 mg/kg/injection, schedule: Q01DX009 (ip), vehicle: saline) 98 % of control; (dose: 50.0 mg/kg/injection, schedule: Q01DX009 (ip), vehicle: saline) 98 % of control; (dose: 100.0 mg/kg/injection, schedule: Q01DX009 (ip), vehicle: saline) 98 % of control; (dose: 200.0 mg/kg/injection, schedule: Q01DX009 (ip), vehicle: saline) 95 % of control.

With `C=CC(=NC(C)C)NC(C)C`, the T/C by setting is: (dose: 1.56 mg/kg/injection, schedule: Q01DX009 (ip), vehicle: saline) 100 % of control; (dose: 3.13 mg/kg/injection, schedule: Q01DX009 (ip), vehicle: saline) 101 % of control.

`Cc1ccc2ncccc2c1`: the T/C runs as follows: (dose: 50.0 mg/kg/injection, schedule: Q04DX003 (ip), vehicle: saline with Tween-80) 102 % of control; (dose: 100.0 mg/kg/injection, schedule: Q04DX003 (ip), vehicle: saline with Tween-80) 101 % of control; (dose: 200.0 mg/kg/injection, schedule: Q04DX003 (ip), vehicle: saline with Tween-80) 98 % of control.

As to `COC(=O)/C=C/C(=O)NC(O)C(Cl)(Cl)Cl` (centres undefined), the T/C runs as follows: under setting [3], 102 % of control; under setting [4], 107 % of control; under setting [5], 102 % of control.

As to `CCCCOC(=O)C1ON(c2ccc(C=O)cc2)C(c2ccc([N+](=O)[O-])cc2)C1C(=O)OCCCC` (centres undefined), the T/C is, setting by setting: under setting [6], 97 % of control; under setting [7], 94 % of control; under setting [8], 91 % of control.

Consider `C/C=C/C(=O)OCC1CCN(C)C1` (centres undefined), for which the T/C was 95 % of control under setting [9]; 94 % of control (dose: 25.0 mg/kg/injection, schedule: Q01DX009 (ip), vehicle: Klucel (hydroxypropylcellulose) (HPC)); 96 % of control under setting [10]; 94 % of control (dose: 100.0 mg/kg/injection, schedule: Q01DX009 (ip), vehicle: Klucel (hydroxypropylcellulose) (HPC)); 89 % of control (dose: 200.0 mg/kg/injection, schedule: Q01DX009 (ip), vehicle: Klucel (hydroxypropylcellulose) (HPC)).

In the case of `CCOC(=O)c1ccc(N)cc1`, the T/C was 105 % of control (dose: 12.5 mg/kg/injection, schedule: Q01DX009 (ip), vehicle: distilled water + Tween-80); 105 % of control (dose: 25.0 mg/kg/injection, schedule: Q01DX009 (ip), vehicle: distilled water + Tween-80); 100 % of control (dose: 37.5 mg/kg/injection, schedule: Q01DX009 (ip), vehicle: saline with Tween-80); 91 % of control (dose: 37.5 mg/kg/injection, schedule: Q04DX003 (ip), vehicle: saline with Tween-80); 104 % of control (dose: 50.0 mg/kg/injection, schedule: Q01DX009 (ip), vehicle: distilled water + Tween-80); 109 % of control (dose: 75.0 mg/kg/injection, schedule: Q01DX009 (ip), vehicle: saline with Tween-80). The T/C is, setting by setting: (dose: 75.0 mg/kg/injection, schedule: Q04DX003 (ip), vehicle: saline with Tween-80) 100 % of control; (dose: 100.0 mg/kg/injection, schedule: Q01DX009 (ip), vehicle: distilled water + Tween-80) 110 % of control; (dose: 150.0 mg/kg/injection, schedule: Q01DX009 (ip), vehicle: saline with Tween-80) 100 % of control; (dose: 150.0 mg/kg/injection, schedule: Q04DX003 (ip), vehicle: saline with Tween-80) 91 % of control; (dose: 200.0 mg/kg/injection, schedule: Q01DX009 (ip), vehicle: distilled water + Tween-80) 102 % of control.

Regarding `CN1C(c2ccccc2)C2CCCC(C1c1ccccc1)C21NC(=O)NC1=O` (centres undefined), the T/C under setting [1] was 97 % of control; the T/C (dose: 200.0 mg/kg/injection, schedule: Q01DX001 (ip), vehicle: saline with Tween-80) is 94 % of control; the T/C under setting [2] is 94 % of control.

On to `OCC1OC(n2cc(I)c3c2ncn2ccnc32)C(O)C1O` (centres undefined), for which the T/C was 98 % of control (dose: 1.56 mg/kg/injection, schedule: Q01DX009 (ip), vehicle: water); 102 % of control (dose: 3.13 mg/kg/injection, schedule: Q01DX009 (ip), vehicle: water); 100 % of control (dose: 6.25 mg/kg/injection, schedule: Q01DX009 (ip), vehicle: water); 102 % of control (dose: 12.5 mg/kg/injection, schedule: Q01DX009 (ip), vehicle: water); 106 % of control (dose: 25.0 mg/kg/injection, schedule: Q01DX009 (ip), vehicle: water).

Turning to `CC(=O)OCc1c(COC(C)=O)c(-c2ccccc2)n2c1CCC2`, the T/C under setting [9] was 110 % of control and the T/C under setting [10] is 87 % of control.

For `NC1=NN(S(=O)(=O)c2ccc(Cl)cc2)CC1`, the T/C under setting [6] was 96 % of control, the T/C under setting [7] was 88 % of control and the T/C under setting [8] is 90 % of control.

With `Cc1cc2c(=O)cc(-c3ccccc3)oc2c(C(=O)O)c1C`, the T/C (dose: 30.0 mg/kg/injection, schedule: Q01DX005 (ip), vehicle: saline with Tween-80) was 103 % of control; the T/C under setting [11] was 114 % of control and 118 % of control; the T/C under setting [12] is 161 % of control.

On to `N#CC(C(=O)CCCC(=O)Nc1ccc(Cl)cc1)c1ccccc1Cl` (centres undefined), for which the T/C under setting [11] is 113 % of control, the T/C under setting [13] is 113 % of control and the T/C under setting [12] was 106 % of control.

`N#C/C(=C/c1cccs1)c1cccs1`: the T/C under setting [11] was 100 % of control, the T/C under setting [13] is 106 % of control and the T/C under setting [12] is 109 % of control.

`CCCNP1(NCCC)=NP(NCCC)(NCCC)=NP(NCCC)(NCCC)=NP(NCCC)(NCCC)=N1`: the T/C runs as follows: under setting [14], 104 % of control; under setting [15], 99 % of control; under setting [3], 100 % of control and 104 % of control.

Regarding `ClC1=C(Cl)C2(Cl)C=CC1(Cl)C2`, the T/C runs as follows: under setting [3], 106 % of control; under setting [4], 106 % of control; under setting [5], 108 % of control.

For the compound `O=C(Cc1ccccc1)c1c[nH]c2c(O)ccc(O)c12`, the T/C is, setting by setting: (dose: 50.0 mg/kg/injection, schedule: Q04DX002 (ip), vehicle: Klucel (hydroxypropylcellulose) (HPC)) 104 % of control; (dose: 100.0 mg/kg/injection, schedule: Q04DX002 (ip), vehicle: Klucel (hydroxypropylcellulose) (HPC)) 108 % of control; (dose: 200.0 mg/kg/injection, schedule: Q04DX002 (ip), vehicle: Klucel (hydroxypropylcellulose) (HPC)) 111 % of control.

As to `C/C(=N\NC(=S)N(C)C1CCCCC1)c1ccc2ccccc2n1`, the T/C is 103 % of control and 114 % of control (dose: 6.25 mg/kg/injection, schedule: Q01DX005 (ip), vehicle: saline with Tween-80); 111 % of control and 115 % of control under setting [14]; 150 % of control under setting [15].

For the compound `C(=Nc1ccccc1)Nc1ccccc1.[Cu+2]`, the T/C was 100 % of control (dose: 6.25 mg/kg/injection, schedule: Q01DX009 (ip), vehicle: saline with Tween-80); 104 % of control and 108 % of control under setting [16].

Take `CCCc1nc(NC(=O)c2ccccc2)nc(NC(=O)c2ccccc2)n1`: the T/C under setting [3] is 102 % of control, the T/C under setting [4] is 106 % of control and the T/C under setting [5] was 106 % of control.

`COc1cccc(N=Nc2c(N)nc(N)nc2N)c1`: the T/C by setting is: under setting [16], 100 % of control; (dose: 25.0 mg/kg/injection, schedule: Q01DX009 (ip), vehicle: saline with Tween-80) 108 % of control; (dose: 50.0 mg/kg/injection, schedule: Q01DX009 (ip), vehicle: saline with Tween-80) 117 % of control.
